Test results published in US20240018151A1, “NOVEL INHIBITORS OF PIKFYVE AND METHODS USING SAME” (priority 2020, published 2024).
Where two headings read alike, the source gives them in different places.

Legend:
PIKFYVE [1] = biological target: T1, PIKFYVE (Homo sapiens (Human), UniProt Q9Y2I7); test: KINOMEScan Kinase Assay, PIKFYVE binding; conditions: for % Inhib. (50 nM): 50 nM compound; for inhibition at 0.05 µM: read-out: % Inhib. (50 nM)
[2] = test system: SARS-CoV-2 spike pseudovirus in BHK21/hACE2 cells; test: microbe, parasite or virus in culture; assay type: cell-based; conditions: Severe acute respiratory syndrome coronavirus 2, BHK-21
in vitro = conditions: hamster
PIKFYVE [3] = biological target: T1, PIKFYVE; test: ADP-GLO Kinase Assay, PIKFYVE inhibitory activity; assay type: biochemical; conditions: substrate PI3P 10,000 nM
Experimental: (§1) Briefly, 4× compound solution and 4×ATP solution are prepared with assay buffer (50 mM MOPS, 1 mM DTT, pH7.2). 4× Substrate solution and 4× kinase/Metal solution are prepared with MOPS based buffer containing individual kinase specific additives. Then, […] of 4× compound solution, 5 μL of 4× Substrate solution, 5 μL of 4×ATP solution, and 5 μL of 4× kinase/Metal solution are mixed and incubated in a well of polystyrene 384 well black microplate for 1 hour at room temperature. Next, 20 μL of ADP-Glo™ Reagent (Promega) is added to the well, and incubated for over 40 minutes. 40 μL of Kinase Detection Reagent (Promega) is added to the well, and incubated for over 40 minutes. The kinase reaction is evaluated by the endpoint luminescence of the well.
For measurement of PIKFYVE activity, the substrate is PI3P at 10,000 nM concentration, using AG-182 as a positive control. The metal used is magnesium at 5 mM concentration.

[4] = test system: PIK3CA, PIP4K2A, PIP4K2B, PIP4K1A, PIP4K1B, PIP4K1C, PIP5KL1; test: Comparative Kinase Assays (selectivity versus other lipid kinases); assay type: biochemical
Experimental: as §1
To determine whether the compounds are selective, the assay is repeated using appropriate substrates for different test enzymes:
The compounds of Examples 1, 3 and 6 are tested against these enzymes: […]

SARS-CoV-2 in Vero cells = test: SARS-CoV-2 immunofluorescence assay (IFA); assay type: cell-based; conditions: Severe acute respiratory syndrome coronavirus 2, SARS-CoV2 IFA Assay
[5] = Cytotoxicity (CC50) in SARS-CoV-2 IFA; assay type: cell-based; conditions: African green monkey; SARS-CoV2 IFA Assay; Vero cells
Experimental: SARS-CoV-2 IFA: In 384-well plates, Vero cells re seeded at an appropriate density and cultured at 37° C. and 5% CO2. Serially diluted (10 concentrations, in duplicates) test/reference compounds are added. Then the cells are infected with virus. The resulting cultures are incubated for an additional 1 day. The cells are then fixed and analyzed by immunofluorescence. EC50 and CC50 values are calculated with GraphPad Prism software.

[6] = test system: influenza A strain California/07/09 (H1N1) pdm09 in MDCK cells; test: Influenza A IFA assay (CPE inhibition, neutral red); assay type: cell-based; conditions: Influenza A virus
[7] = Cytotoxicity (CC50) in Influenza A assay; assay type: cell-based; conditions: dog; Influenza A IFA Assay; MDCK cells
Experimental: Influenza A IFA: Test compounds are solubilized in DMSO to prepare 20 mg/mL stock solutions. Compounds are then serially diluted using eight half-log dilutions in test media so that the starting (high) test concentration is 100 μg/mL. Each dilution is added to 5 wells of a 96-well plate with 80-100% confluent MDCK cells. Three wells of each dilution are infected with virus (strain influenza A strain California/07/09 (H1N1) pdm09), and two wells remain uninfected as toxicity controls. As virus controls, six wells are infected but untreated, and as cell controls, six wells are uninfected and untreated. Each virus is prepared to achieve an MOI (multiplicity of infection) of 0.001. A positive control compound is tested in parallel. Plates are incubated at 37° C. under 5% CO2 atmosphere. On day 3 post-infection (once untreated virus control cells reached maximum cytopathic effect, CPE), plates are stained with neutral red dye for 2 hours. Supernatant dye is removed and the wells are rinsed with PBS. The incorporated dye is extracted using 50:50 Sorensen citrate buffer/ethanol for at least 30 minutes, and the optical density is read at […] on a spectrophotometer. […] The selectivity index (SI) is calculated as CC50 divided by EC50. […]

[8] = test system: HuT-78 (T cell lymphoma) cells; test: Anti-proliferative assay (CellTiter-Glo), HuT-78; assay type: cell-based; conditions: Homo sapiens, HuT78, 144 h, six days incubation
Experimental: (§2) Selected compounds are evaluated for their anti-proliferative activity against human cutaneous T-cell lymphoma and multiple myeloma cell lines.
(§3) HuT-78 (T cell lymphoma) cells or JJN3 (multiple myeloma) cells are cultured in RPMI-1640 with 10% FBS and 1% penicillin/streptomycin. 45 μL suspensions of cells are transferred to the wells of 384-well plate for a density of 1,000 cells per well. The plates are incubated overnight at 37° C. under 5% CO2 atmosphere. Test compounds are dissolved in 100% DMSO at a 2 mM concentration, then diluted 20× in assay medium for to provide a 5% DMSO concentration and 100 μM compound concentration. 5 μL of this compound solution is added to the 45 μL cell suspension in the assay plate for a top plate concentration of 10 μM and 0.5% DMSO concentration. For positive controls, 10 μM APY0201 is added instead of the compound solution. After spinning at 1000 rpm for 1 minutes, the cell plate is placed in the incubator […] at 37° C. under 5% CO2 atmosphere. After incubation for six days, the cell plate is equilibrated to room temperature for 20 minutes. 25 μL of CellTiter-Glo (CTG) reagent (Promega Cat No. G7572) is added to each well, and the plate is shaken for 15 minutes at 300 rpm. Luminescence is read on an Envision plate reader.

[9] = test system: JJN3 (multiple myeloma) cells; test: Anti-proliferative assay (CellTiter-Glo), JJN3; assay type: cell-based; conditions: Homo sapiens, JJN-3, 144 h, six days incubation
Experimental: as §2, §3

T1 sequence (Q9Y2I7 whole entry): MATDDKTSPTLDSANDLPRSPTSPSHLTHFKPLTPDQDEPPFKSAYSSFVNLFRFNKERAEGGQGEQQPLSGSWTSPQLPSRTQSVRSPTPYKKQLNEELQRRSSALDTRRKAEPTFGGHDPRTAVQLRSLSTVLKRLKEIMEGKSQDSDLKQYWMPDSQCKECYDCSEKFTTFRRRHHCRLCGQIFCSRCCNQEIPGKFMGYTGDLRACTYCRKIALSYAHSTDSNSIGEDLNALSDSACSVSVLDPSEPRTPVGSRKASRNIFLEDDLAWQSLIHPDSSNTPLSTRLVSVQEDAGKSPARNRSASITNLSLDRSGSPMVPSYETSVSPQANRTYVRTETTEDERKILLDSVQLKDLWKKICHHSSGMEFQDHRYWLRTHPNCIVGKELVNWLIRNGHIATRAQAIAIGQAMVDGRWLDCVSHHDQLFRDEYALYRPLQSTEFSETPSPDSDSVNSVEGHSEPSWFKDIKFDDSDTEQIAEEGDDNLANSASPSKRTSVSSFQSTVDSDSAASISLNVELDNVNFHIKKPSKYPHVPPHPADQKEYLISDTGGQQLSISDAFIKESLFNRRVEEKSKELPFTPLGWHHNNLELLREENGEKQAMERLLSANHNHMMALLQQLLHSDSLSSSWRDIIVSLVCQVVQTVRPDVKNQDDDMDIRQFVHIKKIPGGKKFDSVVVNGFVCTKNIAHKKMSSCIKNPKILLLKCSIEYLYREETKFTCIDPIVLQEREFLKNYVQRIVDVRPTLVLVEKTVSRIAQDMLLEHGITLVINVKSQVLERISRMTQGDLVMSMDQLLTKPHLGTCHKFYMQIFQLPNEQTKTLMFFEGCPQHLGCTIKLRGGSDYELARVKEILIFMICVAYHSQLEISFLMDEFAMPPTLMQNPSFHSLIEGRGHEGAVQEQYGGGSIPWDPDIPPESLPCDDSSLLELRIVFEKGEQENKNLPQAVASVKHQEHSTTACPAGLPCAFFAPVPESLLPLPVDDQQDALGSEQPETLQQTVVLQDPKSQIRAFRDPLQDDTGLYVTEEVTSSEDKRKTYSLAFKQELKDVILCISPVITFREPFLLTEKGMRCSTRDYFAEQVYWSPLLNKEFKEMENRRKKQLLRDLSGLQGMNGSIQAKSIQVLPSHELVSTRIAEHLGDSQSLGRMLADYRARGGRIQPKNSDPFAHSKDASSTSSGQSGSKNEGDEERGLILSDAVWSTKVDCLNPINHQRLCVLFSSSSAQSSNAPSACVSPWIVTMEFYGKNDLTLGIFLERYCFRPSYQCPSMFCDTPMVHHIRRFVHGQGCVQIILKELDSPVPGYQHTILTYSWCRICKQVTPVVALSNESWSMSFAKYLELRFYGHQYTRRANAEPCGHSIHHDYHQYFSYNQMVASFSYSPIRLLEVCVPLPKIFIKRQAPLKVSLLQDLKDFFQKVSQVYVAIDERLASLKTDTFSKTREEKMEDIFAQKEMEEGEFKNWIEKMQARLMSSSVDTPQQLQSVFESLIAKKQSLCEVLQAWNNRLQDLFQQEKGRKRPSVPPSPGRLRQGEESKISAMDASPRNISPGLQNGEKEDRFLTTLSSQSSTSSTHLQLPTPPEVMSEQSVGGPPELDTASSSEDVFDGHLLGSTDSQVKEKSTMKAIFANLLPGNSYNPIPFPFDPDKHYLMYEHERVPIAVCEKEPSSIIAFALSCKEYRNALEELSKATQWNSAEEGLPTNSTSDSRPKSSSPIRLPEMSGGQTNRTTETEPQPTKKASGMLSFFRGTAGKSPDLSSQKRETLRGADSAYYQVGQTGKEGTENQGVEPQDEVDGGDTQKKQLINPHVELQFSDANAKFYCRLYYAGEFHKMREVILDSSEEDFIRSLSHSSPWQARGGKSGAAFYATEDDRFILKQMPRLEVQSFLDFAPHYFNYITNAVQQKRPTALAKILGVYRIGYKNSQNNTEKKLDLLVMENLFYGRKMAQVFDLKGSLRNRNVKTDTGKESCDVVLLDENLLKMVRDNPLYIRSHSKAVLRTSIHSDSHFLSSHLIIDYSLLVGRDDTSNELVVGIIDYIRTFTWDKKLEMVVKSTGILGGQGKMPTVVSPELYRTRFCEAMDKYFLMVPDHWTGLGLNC

Compound: 4-(2-(pyridin-4-yl)-5-(3-(3-(trifluoromethyl)phenyl)-1H-pyrazol-1-yl)pyrazolo[1,5-a]pyrimidin-7-yl)morpholine [Ex. 21]
- % Inhib. (50 nM) (PIKFYVE [1]; KINOMEScan Kinase Assay): ++ (>50%-80%)

Compound: Cc1cccc(/C=N/Nc2cc(N3CCOCC3)nc(OCCc3ccccn3)n2)c1 [Apilimod, reference compound]
- EC50 [2]: < 10 nM
- CC50 (in vitro): 8000 nM

Compound: CCN(CC)CCCC(C)Nc1ccnc2cc(Cl)ccc12 (centres unmarked) [Chloroquine, chloroquine, reference compound]
- EC50 [2]: 6000 nM
- CC50 (in vitro): 35000 nM

Compound: Cc1cccc(-c2ccn(-c3cc(N4CCOCC4)n4nc(-c5ccncc5)cc4n3)n2)c1 [Ex. 1]
- IC50 (PIKFYVE [3]): < 50 nM
- Fold Selectivity for PIKFYVE [4]: >100-fold
- EC50 [2]: < 10 nM
- EC50 (SARS-CoV-2 in Vero cells): 100 to 1000 nM
- CC50 at 1 day [5]: > 20000 nM
- EC50 [6]: 1000 to 5000 nM
- CC50 [7]: > 20000 nM
- IC50 [8]: 100 to 1000 nM
- IC50 [9]: < 100 nM
- CC50 (in vitro): 5000 to 10000 nM
- Kd (PIKFYVE [1]): < 1 nM

Compound: Fc1cccc(-c2ccn(-c3cc(N4CCOCC4)n4nc(-c5ccncc5)cc4n3)n2)c1 [Ex. 2]
- IC50 (PIKFYVE [3]): < 50 nM
- inhibition at 0.05 µM (PIKFYVE [1]): 50 to 80%

Compound: Brc1cccc(-c2ccn(-c3cc(N4CCOCC4)n4nc(-c5ccncc5)cc4n3)n2)c1 [Ex. 3]
- EC50 [2]: < 10 nM
- EC50 (SARS-CoV-2 in Vero cells): 1000 to 5000 nM
- CC50 at 1 day [5]: > 20000 nM
- EC50 [6]: 5000 to 10000 nM
- CC50 [7]: > 20000 nM
- CC50 (in vitro): > 10000 nM
- inhibition at 0.05 µM (PIKFYVE [1]): 80 to 100%

Compound: N#Cc1cccc(-c2ccn(-c3cc(N4CCOCC4)n4nc(-c5ccncc5)cc4n3)n2)c1 [Ex. 4]
- IC50 (PIKFYVE [3]): < 50 nM
- inhibition at 0.05 µM (PIKFYVE [1]): 50 to 80%

Compound: CC(C)(C)c1ccn(-c2cc(N3CCOCC3)n3nc(-c4ccncc4)cc3n2)n1 [Ex. 5]
- IC50 (PIKFYVE [3]): > 1000 nM
- inhibition at 0.05 µM (PIKFYVE [1]): < 50%

Compound: COc1cccc(-c2ccn(-c3cc(N4CCOCC4)n4nc(-c5ccncc5)cc4n3)n2)c1 [Ex. 6]
- IC50 (PIKFYVE [3]): < 50 nM
- Fold Selectivity for PIKFYVE [4]: >200-fold
- EC50 [2]: < 10 nM
- IC50 [8]: 100 to 1000 nM
- IC50 [9]: < 100 nM
- CC50 (in vitro): 5000 to 10000 nM
- Kd (PIKFYVE [1]): < 1 nM

Compound: Cc1ccccc1-c1ccn(-c2cc(N3CCOCC3)n3nc(-c4ccncc4)cc3n2)n1 [Ex. 7]
- IC50 (PIKFYVE [3]): 50 to 1000 nM
- inhibition at 0.05 µM (PIKFYVE [1]): < 50%

Compound: Fc1ccccc1-c1ccn(-c2cc(N3CCOCC3)n3nc(-c4ccncc4)cc3n2)n1 [Ex. 8]
- IC50 (PIKFYVE [3]): < 50 nM
- inhibition at 0.05 µM (PIKFYVE [1]): 50 to 80%

Compound: Fc1ccc(-c2ccn(-c3cc(N4CCOCC4)n4nc(-c5ccncc5)cc4n3)n2)cc1 [Ex. 9]
- IC50 (PIKFYVE [3]): < 50 nM
- inhibition at 0.05 µM (PIKFYVE [1]): 50 to 80%

Compound: FC(F)(F)c1ccc(-c2ccn(-c3cc(N4CCOCC4)n4nc(-c5ccncc5)cc4n3)n2)cc1 [Ex. 10]
- IC50 (PIKFYVE [3]): > 1000 nM
- inhibition at 0.05 µM (PIKFYVE [1]): < 50%

Compound: COc1cccc(-c2ccn(-c3cc(N4CCO[C@H](C)C4)n4nc(-c5ccncc5)cc4n3)n2)c1 [Ex. 11]
- Kd (PIKFYVE [1]; KINOMEScan Kinase Assay): 5 to 10 nM

Compound: COc1cccc(-c2ccn(-c3cc(N4CCO[C@@H](C)C4)n4nc(-c5ccncc5)cc4n3)n2)c1 [Ex. 12]
- % Inhib. (50 nM) (PIKFYVE [1]; KINOMEScan Kinase Assay): +++ (>80%-100%)

Compound: COc1cccc(-c2ccn(-c3cc(N4CCOC[C@@H]4C)n4nc(-c5ccncc5)cc4n3)n2)c1 [Ex. 13]
- % Inhib. (50 nM) (PIKFYVE [1]; KINOMEScan Kinase Assay): +++ (>80%-100%)

Compound: COc1cccc(-c2ccn(-c3cc(N4CCOC[C@H]4C)n4nc(-c5ccncc5)cc4n3)n2)c1 [Ex. 14]
- Kd (PIKFYVE [1]; KINOMEScan Kinase Assay): 5 to 10 nM

Compound: COc1cccc(-c2ccn(-c3cc(N4CCOCC4)n4nc(-c5ccncc5)cc4n3)n2)c1 [Ex. 15]
- Kd (PIKFYVE [1]; KINOMEScan Kinase Assay): 1 to 5 nM

Compound: Cc1cccc(-c2ccn(-c3cc(N4CCOCC4)n4nc(-c5ccncc5)cc4n3)n2)c1 [Ex. 17]
- Kd (PIKFYVE [1]; KINOMEScan Kinase Assay): < 1 nM

Compound: [O-][n+]1ccc(-c2cc3nc(-n4ccc(-c5cccc(Br)c5)n4)cc(N4CCOCC4)n3n2)cc1 [Ex. 18, 4-(5-(3-(3-bromophenyl)-1H-pyrazol-1-yl)-7-morpholinopyrazolo[1,5-a]pyrimidin-2-yl)pyridine 1-oxide]
- Kd (PIKFYVE [1]): < 1 nM

Compound: FC(F)(F)Oc1cccc(-c2ccn(-c3cc(N4CCOCC4)n4nc(-c5ccncc5)cc4n3)n2)c1 [Ex. 22, 4-(2-(pyridin-4-yl)-5-(3-(3-(trifluoromethoxy)phenyl)-1H-pyrazol-1-yl)pyrazolo[1,5-a]pyrimidin-7-yl)morpholine]
- inhibition at 0.05 µM (PIKFYVE [1]): < 50%

Compound: CCOc1cccc(-c2ccn(-c3cc(N4CCOCC4)n4nc(-c5ccncc5)cc4n3)n2)c1 [Ex. 23, 4-(5-(3-(3-ethoxyphenyl)-1H-pyrazol-1-yl)-2-(pyridin-4-yl)pyrazolo[1,5-a]pyrimidin-7-yl)morpholine]
- inhibition at 0.05 µM (PIKFYVE [1]): < 50%

Compound: Cc1cccc(-c2ccn(-c3cc(N4CCOCC4)n4nc(Br)cc4n3)n2)c1 [Ex. 24, 4-(2-bromo-5-(3-(m-tolyl)-1H-pyrazol-1-yl)pyrazolo[1,5-a]pyrimidin-7-yl)morpholine]
- Kd (PIKFYVE [1]): 1 to 5 nM

Compound: Cc1cccc(-c2ccn(-c3cc(N4CCOCC4)n4nc(-c5ccnnc5)cc4n3)n2)c1 [Ex. 25, 4-(2-(pyridazin-4-yl)-5-(3-(m-tolyl)-1H-pyrazol-1-yl)pyrazolo[1,5-a]pyrimidin-7-yl)morpholine]
- Kd (PIKFYVE [1]): < 1 nM

Compound: Cc1cccc(-c2ccn(-c3cc(N4CCOCC4)n4nc(C5=CCN(C(=O)OC(C)(C)C)CC5)cc4n3)n2)c1 [Ex. 26, tert-butyl4-(7-morpholino-5-(3-(m-tolyl)-1H-pyrazol-1-yl)pyrazolo[1,5-a]pyrimidin-2-yl)-3,6-dihydropyridine-1(2H)-carboxylate]
- inhibition at 0.05 µM (PIKFYVE [1]): 80 to 100%

Compound: C=Cc1cc2nc(-n3ccc(-c4cccc(C)c4)n3)cc(N3CCOCC3)n2n1 [Ex. 27, 4-(5-(3-(m-tolyl)-1H-pyrazol-1-yl)-2-vinylpyrazolo[1,5-a]pyrimidin-7-yl)morpholine]
- inhibition at 0.05 µM (PIKFYVE [1]): 80 to 100%

Compound: Cc1cccc(-c2ccn(-c3cc(N4CCOCC4)n4nc(C5=CCNCC5)cc4n3)n2)c1 [Ex. 28, 4-(2-(1,2,3,6-tetrahydropyridin-4-yl)-5-(3-(m-tolyl)-1H-pyrazol-1-yl)pyrazolo[1,5-a]pyrimidin-7-yl)morpholine]
- Kd (PIKFYVE [1]): 1 to 5 nM

Compound: Cc1cccc(-c2ccn(-c3cc(N4CCOCC4)n4nc(C5=CC[N+](C)(C)CC5)cc4n3)n2)c1 [Ex. 29, 1,1-dimethyl-4-(7-morpholino-5-(3-(m-tolyl)-1H-pyrazol-1-yl)pyrazolo[1,5-a]pyrimidin-2-yl)-1,2,3,6-tetrahydropyridin-1-ium]
- % Inhib. (50 nM) (PIKFYVE [1]; KINOMEScan Kinase Assay): +++ (>80%-100%)
